# Publication PMC7004151, “Synthesis and Structure‐Activity Relationships of N‐(4‐Benzamidino)‐Oxazolidinones: Potent and Selective Inhibitors of Kallikrein‐Related Peptidase 6” (Chemmedchem, 2019)
# Experiments:
# Thermodynamic solubility = type: physicochemical; settings: thermodynamic from solid, Milli-Q water, 37 °C
# Procedure: Thermodynamic solubility: Test compound (3 mg) is accurately weighed into a Micronics tube. Extra tubes for each control compound, Warfarin (high solubility control) and Cinnarizine (low solubility control) were also accurately weighed. To each tube is added 1 mL of Milli‐Q water. All samples are vortexed for 20 s and placed in a bench top incubator shaker set at 1300 rpm at 37 °C for 5 h. After the incubation, samples are centrifuged at 10,000 rpm for 3 min. 100 μL aliquots of the supernatant in duplicate were placed in a 96‐well plate. All samples, calibration standards and QC samples are analyzed using a validated HPLC method on the Dionex Ultramate 3000 HPLC system. The concentration determined from the supernatant was then reported as the solubility of each compound in μg/mL.
# KLK4 = KLK4 (Homo sapiens, UniProt Q9Y5K2); test: KLK4 inhibition (selectivity); type: biochemical; settings: read-out: KLK4 pIC50 (converted)
# From the text: Table 3 Activity of synthesized inhibitors against KLK6 and related proteases. | column: KLK4^a
# [1] = Microsomal intrinsic clearance, human microsomes; type: in vitro ADME
# Procedure: Immediately, at time zero, then at 3, 6, 9, 15 and 30 min an aliquot (50 μL) of the incubation mixture was removed and mixed with acetonitrile (100 μL) to stop the reaction. Internal standard was added to all samples, the samples centrifuged to sediment precipitated protein and the plates then sealed prior to UPLC‐MS/MS analysis using a Quattro Premier XE (Waters Corporation, USA). XLfit (IDBS, UK) was used to calculate the exponential decay and consequently the rate constant (k) from the ratio of peak area of test compound to internal standard at each timepoint. The rate of intrinsic clearance (CLint) of each test compound was then calculated using the following calculation: CLint (mL/min/g liver)=k×V×Microsomal protein yield. Where V (mL/mg protein) is the incubation volume/mg protein added and microsomal protein yield is taken as 52.5 mg protein/g liver. Verapamil (0.5 μM) was used as a positive control to confirm acceptable assay performance.
# CYP2D6 = biological target: T1, CYP2D6 (Homo sapiens, UniProt P10635); test: Fluorescence-based CYP inhibition, CYP bactosomes; type: in vitro ADME; settings: read-out: CYP Inhibition IC50 2D6
# T1 construct: purchased Cypex; host or cells: bacterial membranes (bactosomes)
# Procedure: (§1) Fluorescence-based CYP Inhibition using recombinantly expressed CYP bactosomes: Fluorescence CYP inhibition studies were conducted at 37 °C in 96-well, flat-bottom, clear polystyrene plates. Incubation mixtures containing […] bactosomes (1000 pmol/mL, 10 mg/mL Cypex TM), fluorigenic substrate (Cypex TM) and 50 mM potassium phosphate buffer (pH 7.4) were prepared at the following final concentrations: CYP1A2, 5 pmol/mL+0.5 μM Ethoxyresorufin (ER); […] Bactosome control protein was included in reactions to give a final concentration of 0.025 mg/mL. Reaction times were verified to be within the limits of kinetics linearity. For each isoform, 220 μL of incubation mix was added to each well of a 96-well, flat-bottom, clear polystyrene plate. […] Reactions were initiated by the addition of 25 μL regenerating cofactor solution (23 mM Glucose-6-Phosphate, 2.2 mM NADP, 6 Units per ml Glucose-6-Phosphate Dehydrogenase (from Baker's yeast S. cerevisiae) in 2 % w/v NaHCO3, Sigma) and subsequent production of fluorescence metabolite measured at 1 min intervals over a 10 min period using a BMG Optima fluorescence detector (ER: Exc 530 nm, Em 590 nm, MFC: Exc 410 nm, Em 530 nm, CEC: Exc 410 nm, Em 530 nm, MAMC: Exc 405 nm, Em 460 nm, DEF: Exc 405 nm, Em 560 nm, 7BQ: Exc 485 nm, Em 530 nm). Fluorescence responses were adjusted to a percentage of uninhibited control before plotting against compound concentration and deriving the IC50 by fitting to a 4 parameter logistic regression model.
# CYP1A2 = biological target: T2, CYP1A2 (Homo sapiens, UniProt P05177); test: Fluorescence-based CYP inhibition, CYP bactosomes; type: in vitro ADME; settings: read-out: CYP Inhibition IC50 1A2
# T2 construct: purchased Cypex; host or cells: bacterial membranes (bactosomes)
# T2 sequence (P05177 1-516): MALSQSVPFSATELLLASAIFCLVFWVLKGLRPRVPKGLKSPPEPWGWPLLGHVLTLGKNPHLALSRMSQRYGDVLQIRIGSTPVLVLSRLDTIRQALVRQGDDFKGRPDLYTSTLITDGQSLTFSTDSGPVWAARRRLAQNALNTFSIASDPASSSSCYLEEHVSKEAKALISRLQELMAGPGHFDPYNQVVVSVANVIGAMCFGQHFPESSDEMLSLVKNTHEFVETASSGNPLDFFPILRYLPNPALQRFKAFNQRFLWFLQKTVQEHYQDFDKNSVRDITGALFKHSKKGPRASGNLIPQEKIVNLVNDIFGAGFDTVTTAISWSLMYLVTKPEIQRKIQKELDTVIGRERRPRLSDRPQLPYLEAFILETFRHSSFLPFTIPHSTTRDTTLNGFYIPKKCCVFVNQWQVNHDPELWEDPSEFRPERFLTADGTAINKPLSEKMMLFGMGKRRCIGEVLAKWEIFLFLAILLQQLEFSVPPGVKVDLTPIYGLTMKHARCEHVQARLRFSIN
# Procedure: as §1
# CYP2C9 = biological target: T3, CYP2C9 (Homo sapiens, UniProt P11712); test: Fluorescence-based CYP inhibition, CYP bactosomes; type: in vitro ADME; settings: read-out: CYP Inhibition IC50 2C9
# T3 construct: purchased Cypex; host or cells: bacterial membranes (bactosomes)
# Procedure: as §1
# CYP3A4 = biological target: T4, CYP3A4 (Homo sapiens, UniProt P08684); test: Fluorescence-based CYP inhibition, CYP bactosomes; type: in vitro ADME; settings: read-out: CYP Inhibition IC50 3A4
# T4 construct: purchased Cypex; host or cells: bacterial membranes (bactosomes)
# Procedure: as §1
# CYP2C19 = biological target: T5, CYP2C19 (Homo sapiens, UniProt P33261); test: Fluorescence-based CYP inhibition, CYP bactosomes; type: in vitro ADME; settings: recombinantly expressed CYP bactosomes (EasyCYP), pH 7.4, probe 3-Cyano-7-Ethoxycoumarin (CEC), 25 μM, read-out: CYP Inhibition IC50 2C19
# T5 construct: purchased Cypex; host or cells: bacterial membranes (bactosomes)
# Procedure: as §1
# Plasma stability assay = type: in vitro ADME, mouse
# Procedure: Plasma stability assay: Test compound (10 μM) was incubated in pre‐warmed plasma at 37 °C (that is buffered to pH 7.4 in ratio of 70 : 30 plasma to buffer). Immediately, at time zero, then at 30, 60, 120, and 180 min, a 50 μL aliquot of the incubation mixture was removed and mixed with 200 μL acetonitrile containing Donepezil as the internal standard (50 ng/mL) to stop the reaction. The samples were centrifuged to sediment the precipitated protein and the plates then sealed prior to UPLC‐MS/MS analysis using a Quattro Premier XE (Waters Corporation, USA). XLfit (IDBS, UK) was used to calculate the exponential decay and consequently the rate constant (k) from the ratio of peak area of test compound to internal standard at each time point. The half‐life was calculated for each test compound from the rate by using the following calculation: t1/2=0.693/k
# Chain of KLK4 (Q9Y5K2 31-254, species assumed): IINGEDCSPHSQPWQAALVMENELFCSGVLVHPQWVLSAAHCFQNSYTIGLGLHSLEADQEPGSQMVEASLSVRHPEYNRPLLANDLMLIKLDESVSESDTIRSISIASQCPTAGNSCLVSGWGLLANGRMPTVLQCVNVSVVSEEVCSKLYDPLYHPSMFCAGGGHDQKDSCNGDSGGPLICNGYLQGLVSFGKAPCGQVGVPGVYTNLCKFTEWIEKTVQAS
# T1 sequence (P10635 whole entry): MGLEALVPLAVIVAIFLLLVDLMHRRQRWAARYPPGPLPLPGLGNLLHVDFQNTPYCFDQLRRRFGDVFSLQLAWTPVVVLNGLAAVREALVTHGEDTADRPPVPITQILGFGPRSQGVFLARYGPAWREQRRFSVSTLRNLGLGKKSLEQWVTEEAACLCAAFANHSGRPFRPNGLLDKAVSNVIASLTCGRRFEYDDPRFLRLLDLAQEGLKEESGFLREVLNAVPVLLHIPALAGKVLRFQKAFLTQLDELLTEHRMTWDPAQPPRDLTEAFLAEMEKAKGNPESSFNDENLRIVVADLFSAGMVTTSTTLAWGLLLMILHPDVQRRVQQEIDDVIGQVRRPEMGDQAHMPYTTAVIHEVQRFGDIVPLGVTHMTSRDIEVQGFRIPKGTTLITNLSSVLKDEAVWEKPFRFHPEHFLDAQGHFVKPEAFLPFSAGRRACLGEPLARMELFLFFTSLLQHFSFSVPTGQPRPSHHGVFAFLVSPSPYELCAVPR
# T3 sequence (P11712 whole entry): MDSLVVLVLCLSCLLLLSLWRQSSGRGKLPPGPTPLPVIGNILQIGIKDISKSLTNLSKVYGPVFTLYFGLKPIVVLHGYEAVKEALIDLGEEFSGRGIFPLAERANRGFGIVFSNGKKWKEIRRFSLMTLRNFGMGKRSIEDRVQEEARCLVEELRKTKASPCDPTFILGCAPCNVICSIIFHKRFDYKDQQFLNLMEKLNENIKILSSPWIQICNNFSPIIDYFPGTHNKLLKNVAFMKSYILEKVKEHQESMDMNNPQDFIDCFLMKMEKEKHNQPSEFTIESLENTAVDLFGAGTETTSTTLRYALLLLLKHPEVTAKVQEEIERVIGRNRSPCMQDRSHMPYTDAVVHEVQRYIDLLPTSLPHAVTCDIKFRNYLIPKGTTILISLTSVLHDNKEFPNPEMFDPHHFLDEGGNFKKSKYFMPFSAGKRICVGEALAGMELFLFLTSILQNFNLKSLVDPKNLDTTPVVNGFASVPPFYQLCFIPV
# T5 sequence (P33261 whole entry): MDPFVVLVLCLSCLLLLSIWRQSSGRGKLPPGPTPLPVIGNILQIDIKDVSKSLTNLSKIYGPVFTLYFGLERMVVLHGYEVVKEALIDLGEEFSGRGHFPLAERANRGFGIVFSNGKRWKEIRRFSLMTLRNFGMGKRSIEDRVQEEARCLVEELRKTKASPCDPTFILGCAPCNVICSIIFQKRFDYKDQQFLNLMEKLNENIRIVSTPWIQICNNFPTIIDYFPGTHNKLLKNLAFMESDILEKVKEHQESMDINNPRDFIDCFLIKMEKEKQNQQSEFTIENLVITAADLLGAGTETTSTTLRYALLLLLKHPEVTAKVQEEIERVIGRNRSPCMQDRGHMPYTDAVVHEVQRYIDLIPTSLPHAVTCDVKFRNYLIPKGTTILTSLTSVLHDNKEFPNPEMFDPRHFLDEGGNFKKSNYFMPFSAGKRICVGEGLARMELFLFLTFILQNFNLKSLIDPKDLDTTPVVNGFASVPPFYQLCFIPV
# T4 sequence (P08684 whole entry): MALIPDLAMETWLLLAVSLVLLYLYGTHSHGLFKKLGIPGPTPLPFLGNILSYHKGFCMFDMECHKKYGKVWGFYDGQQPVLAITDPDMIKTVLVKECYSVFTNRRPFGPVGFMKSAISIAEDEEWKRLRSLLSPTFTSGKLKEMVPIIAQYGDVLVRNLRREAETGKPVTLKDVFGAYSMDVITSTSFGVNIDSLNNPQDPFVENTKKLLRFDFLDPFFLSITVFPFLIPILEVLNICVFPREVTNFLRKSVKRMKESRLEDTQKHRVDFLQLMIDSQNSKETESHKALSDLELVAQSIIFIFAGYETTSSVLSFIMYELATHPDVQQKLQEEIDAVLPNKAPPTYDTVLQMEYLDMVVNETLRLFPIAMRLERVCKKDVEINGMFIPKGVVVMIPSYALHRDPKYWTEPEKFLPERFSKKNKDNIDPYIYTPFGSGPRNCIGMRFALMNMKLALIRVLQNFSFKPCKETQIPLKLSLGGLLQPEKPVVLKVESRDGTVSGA
structure (smiles),measurement,setting,value
"CC[C@H](NC(=O)[C@H]1CN(c2ccc(C(=N)N)cc2)C(=O)O1)c1cccc2ccccc12 [Compound 32, (5R)‐3‐(4‐carbamimidoylphenyl)‐N‐((S)‐1‐(naphthalen‐1‐yl)propyl)‐2‐oxooxazolidine‐5‐carboxamide]",solubility thermodynamic at 5 h,Thermodynamic solubility,2300 µM
same,IC50,KLK4,0.158 µM
same,Human CLint,[1],3.1 mL/min/g
same,IC50,CYP2D6,> 10 µM
same,IC50,CYP1A2,> 10 µM
same,IC50,CYP2C9,> 10 µM
same,IC50,CYP3A4,4.8 µM
same,IC50 at 10 min,CYP2C19,7.9 µM
same,stability in mouse plasma,Plasma stability assay; over 3 h,no instability
same,half-life at 10 μM,"Plasma stability assay; pH 7.4, mouse plasma, 37 °C, read-out: Mouse Plasma Stability (t1/2)",> 3 h
